Laboratory results from ChEMBL document CHEMBL2424531, “Molecular docking- and genetic algorithm-based approaches to produce robust 3D-QSAR models” (Med Chem Res, 2013).

assay: Inhibition of glycogen phosphorylase b (unknown origin); design: species or system Homo sapiens

Compound | Ki [µM]
[N-]=[N+]=NC[C@H]1O[C@H](CO)[C@@H](O)[C@H](O)[C@H]1O | 22400
NCC[C@@H]1O[C@H](CO)[C@@H](O)[C@H](O)[C@H]1O | 4500
OC[C@H]1O[C@@](O)(CO)[C@H](O)[C@@H](O)[C@@H]1O | 15800
NC[C@H]1O[C@H](CO)[C@@H](O)[C@H](O)[C@H]1O | 34500
O=C(NCCO)[C@@H]1O[C@H](CO)[C@@H](O)[C@H](O)[C@H]1O | 2600
NC(=O)CSC1O[C@H](CO)[C@@H](O)[C@H](O)[C@H]1O (single isomer, unassigned) | 21100
CNNC(=O)C1O[C@H](CO)[C@@H](O)[C@H](O)[C@H]1O (single isomer, unassigned) | 1800
OC[C@H]1O[C@H](CO)[C@@H](O)[C@H](O)[C@H]1O | 1500
CNC(=O)[C@H]1O[C@H](CO)[C@@H](O)[C@H](O)[C@H]1O | 36700
OC[C@H]1S[C@H](O)[C@H](O)[C@@H](O)[C@@H]1O | 2000
COC(=O)[C@H]1O[C@H](CO)[C@@H](O)[C@H](O)[C@H]1O | 24200
O=C(CSC1O[C@H](CO)[C@@H](O)[C@H](O)[C@H]1O)Nc1ccccc1 (single isomer, unassigned) | 3600
OC[C@H]1O[C@@H](S)[C@H](O)[C@@H](O)[C@@H]1O | 1000
O=C(Nc1ccc(O)cc1)[C@H]1O[C@H](CO)[C@@H](O)[C@H](O)[C@H]1O | 5600
O=C(CSC1O[C@H](CO)[C@@H](O)[C@H](O)[C@H]1O)Nc1ccc(F)cc1F (single isomer, unassigned) | 18900
NNC(=O)[C@H]1O[C@H](CO)[C@@H](O)[C@H](O)[C@H]1O | 3000
O=C(Nc1ccc(O)cc1)[C@@H]1O[C@H](CO)[C@@H](O)[C@H](O)[C@H]1O | 4400

Compound | Ki [µM]
NC[C@@H]1O[C@H](CO)[C@@H](O)[C@H](O)[C@H]1O | 16800
O=C(O)[C@H]1O[C@H](CO)[C@@H](O)[C@H](O)[C@H]1O | 15200
O=C(Nc1ccccc1)[C@H]1O[C@H](CO)[C@@H](O)[C@H](O)[C@H]1O | 12600
O=C(NCc1ccc(F)cc1F)[C@H]1O[C@H](CO)[C@@H](O)[C@H](O)[C@H]1O | 27200
N#CC[C@]1(O)O[C@H](CO)[C@@H](O)[C@H](O)[C@H]1O | 7600
OC[C@H]1O[C@@H](Oc2cc3ccccc3[nH]2)[C@H](O)[C@@H](O)[C@@H]1O | 2600
N#CC[C@@H]1O[C@H](CO)[C@@H](O)[C@H](O)[C@H]1O | 9000
O=C(NCCO)[C@H]1O[C@H](CO)[C@@H](O)[C@H](O)[C@H]1O | 16900
O=C(NCC(F)(F)F)[C@@H]1O[C@H](CO)[C@@H](O)[C@H](O)[C@H]1O | 8100
[N-]=[N+]=NC[C@]1(O)O[C@H](CO)[C@@H](O)[C@H](O)[C@H]1O | 7400
CO[C@@H]1O[C@H](CO)[C@@H](O)[C@H](O)[C@H]1O | 24700
CS(=O)(=O)OC[C@]1(O)O[C@H](CO)[C@@H](O)[C@H](O)[C@H]1O | 3700
CS(=O)(=O)OC[C@@H]1O[C@H](CO)[C@@H](O)[C@H](O)[C@H]1O | 4800
COC(=O)[C@@H]1O[C@H](CO)[C@@H](O)[C@H](O)[C@H]1O | 2800
C[C@H]1O[C@H](CO)[C@@H](O)[C@H](O)[C@H]1O | 53100
O=C(Nc1ccccc1)[C@@H]1O[C@H](CO)[C@@H](O)[C@H](O)[C@H]1O | 5400
O=C(NC1CC1)[C@@H]1O[C@H](CO)[C@@H](O)[C@H](O)[C@H]1O | 1300

Continued, values first:

Ki [µM] | Compound
400 | NNC(=O)[C@@H]1O[C@H](CO)[C@@H](O)[C@H](O)[C@H]1O
45 | O=C(CCl)NC1O[C@H](CO)[C@@H](O)[C@H](O)[C@H]1O (single isomer, unassigned)
16 | COC(=O)N[C@]1(C(N)=O)O[C@H](CO)[C@@H](O)[C@H](O)[C@H]1O
39 | CCC(=O)NC1O[C@H](CO)[C@@H](O)[C@H](O)[C@H]1O (single isomer, unassigned)
440 | NC(=O)[C@@H]1O[C@H](CO)[C@@H](O)[C@H](O)[C@H]1O
44 | O=C(CBr)N[C@@H]1O[C@H](CO)[C@@H](O)[C@H](O)[C@H]1O
370 | NCC(=O)N[C@@H]1O[C@H](CO)[C@@H](O)[C@H](O)[C@H]1O
370 | NC(=O)[C@H]1O[C@H](CO)[C@@H](O)[C@H](O)[C@H]1O
160 | CNC(=O)[C@@H]1O[C@H](CO)[C@@H](O)[C@H](O)[C@H]1O
94 | CCCC(=O)NC1O[C@H](CO)[C@@H](O)[C@H](O)[C@H]1O (single isomer, unassigned)
140 | NC(=O)NC1O[C@H](CO)[C@@H](O)[C@H](O)[C@H]1O (single isomer, unassigned)
85 | COC(=O)N[C@@H]1O[C@H](CO)[C@@H](O)[C@H](O)[C@H]1O
59.7 | O=C1CNC(=O)C2(N1)O[C@H](CO)[C@@H](O)[C@H](O)[C@H]2O (stereo partly specified)
32 | CC(=O)NC1O[C@H](CO)[C@@H](O)[C@H](O)[C@H]1O (single isomer, unassigned)
146 | NN1C(=O)NC2(O[C@H](CO)[C@@H](O)[C@H](O)[C@H]2O)C1=O (stereo partly specified)
990 | CC(=O)NCC(=O)NC1O[C@H](CO)[C@@H](O)[C@H](O)[C@H]1O (single isomer, unassigned)
81 | O=C(NC1O[C@H](CO)[C@@H](O)[C@H](O)[C@H]1O)c1ccccc1 (single isomer, unassigned)
